# From article PMC7338124, “Characterization of neuraminidase inhibitor-resistant influenza virus isolates from immunocompromised patients in the Republic of Korea” (Virology Journal, 2020)
# Assays:
# [1] = system: 2018–2019 isolates A(H1N1)pdm09 neuraminidase, Wild; assay type: biochemical, influenza A(H1N1)pdm09 virus
# [2] = system: 2018–2019 isolates A(H3N2) neuraminidase, Wild; assay type: biochemical, influenza A(H3N2) virus
# [3] = system: A/Korea/S0003/2019 A(H1N1)pdm09 neuraminidase, Variant (H275Y); assay type: biochemical, influenza A(H1N1)pdm09 virus
# [4] = system: A/Korea/S0002/2019 A(H1N1)pdm09 neuraminidase, Variant (H275Y); assay type: biochemical, influenza A(H1N1)pdm09 virus
# [5] = system: 2018–2019 isolates B neuraminidase, Wild; assay type: biochemical, influenza B virus
SMILES,NAI resistance (IC50 fold change) [1],NAI resistance (IC50 fold change) [2],NAI resistance (IC50 fold change) [3],Susceptibility to NAI (in words) [3],NAI resistance (IC50 fold change) [4],Susceptibility to NAI (in words) [4],NAI resistance (IC50 fold change) [5]
CCOC(=O)C1=C[C@@H](OC(CC)CC)[C@H](NC(C)=O)[C@@H](N)C1 [Oseltamivir],0.1–1.2 fold,0.1–0.2 fold,–,–,–,–,–
CC(=O)N[C@H]1[C@H]([C@H](O)[C@H](O)CO)OC(C(=O)O)=C[C@@H]1N=C(N)N [Zanamivir],0.3–0.7 fold,0.4–0.8 fold,NI 2.56 fold,normally susceptible,NI 0.44 fold,normally susceptible,0.7–1.6 fold
CCC(CC)[C@H](NC(C)=O)[C@@H]1[C@H](O)[C@@H](C(=O)O)C[C@H]1N=C(N)N [Peramivir],0.1 fold,0.2–0.3 fold,–,–,–,–,0.3–0.4 fold
